According to the supplement of paper PMC11208160:

Assay: recombinant barcode read abundance after kanamycin selection (control-corrected) (log10(CPM+1)); higher = more efficient recombination; sequences stand for … in AGTGCAGAGAAAATCGGCCAGTTTTCTCTGCCTGCAGTCCGCATGCCGT…AGATTTATGCAGCGGACTGCCTTTCTCCCAAAGTGATAAACCGGACAGTATCATGGACCGGTTTTCCCGGTAATCCGTATTTGCAAGGTTGGTTTCACT; site = the 11-nt target
How it was run: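 Pooled E. coli screen pairing targets with IS621 bridge RNA target-binding loops. Each oligo (promoter, target, barcode, J23119-driven first 104 bridge RNA bases) was Gibson-cloned into a vector with the remaining 73 bp and T7-inducible recombinase, then co-electroporated with a donor plasmid. Two replicates each were plated on chloramphenicol/ampicillin LB agar (control) or chloramphenicol/ampicillin/kanamycin with 0.1 mM IPTG. Recombination efficiency is recombinant-junction barcode counts as CPM, averaged, control-corrected, reported as log10(CPM+1).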
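Note: IS621 recombinase and bridge RNA in Escherichia coli cells.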

Sequence | recombinant barcode read abundance (log10)
ATGAGGCCTTGGGTTCTAACCTGTTGCTA (site ATGAGGCCTTA) | 0.739
ATGAGGCCTTGGGTTCTAACCTGTTGCTA (site TCAGAAGCTCG) | 0.159
ATGATACCTTGGGTTCTAACCTGTTGCAT (site ATGATACCTAT) | 1.71
ATGATACCTTGGGTTCTAACCTGTTGCAT (site CCTGGGACTTA) | 0.243
ATGATATCTTGGGTTCTAACCTGTTGCCT (site AAGATATCTAG) | 0.0255
ATGATATCTTGGGTTCTAACCTGTTGCCT (site ACGATATCTAG) | 0.43
ATGATATCTTGGGTTCTAACCTGTTGCCT (site AGGATATCTAG) | 0.181
ATGATATCTTGGGTTCTAACCTGTTGCCT (site ATGATATCTAG) | 1.5
ATGCAATCTTGGGTTCTAACCTGTTGCCT (site ATGCAAACTAG) | 0.104
ATGCAATCTTGGGTTCTAACCTGTTGCCT (site ATGCAACCTAG) | 0.197
ATGCAATCTTGGGTTCTAACCTGTTGCCT (site ATGCAAGCTAG) | 0.236
ATGCAATCTTGGGTTCTAACCTGTTGCCT (site ATGCAATCTAG) | 1.09
ATGCGAGCTTGGGTTCTAACCTGTTGCGG (site ATGCGAGCTCA) | 0.873
ATGCGAGCTTGGGTTCTAACCTGTTGCGG (site ATGCGAGCTCC) | 1.92
ATGCGAGCTTGGGTTCTAACCTGTTGCGG (site ATGCGAGCTCG) | 0.194
ATGCGAGCTTGGGTTCTAACCTGTTGCGG (site ATGCGAGCTCT) | 1.37
ATGCGAGCTTGGGTTCTAACCTGTTGCTG (site ATGCGAGCTCA) | 1.19
ATGCGAGCTTGGGTTCTAACCTGTTGCTG (site ATGCGAGCTCC) | 0.687
ATGCGAGCTTGGGTTCTAACCTGTTGCTG (site ATGCGAGCTCG) | 0.533
ATGCGAGCTTGGGTTCTAACCTGTTGCTG (site ATGCGAGCTCT) | 0.76
ATGCGGTCTTGGGTTCTAACCTGTTGCCT (site ATGCGGTCTAG) | 2.02
ATGCGGTCTTGGGTTCTAACCTGTTGCCT (site CTGCGGTCTAT) | 0.112

Sequence | recombinant barcode read abundance (log10)
ATGCTAACTTGGGTTCTAACCTGTTGCCT (site ATGCTAACTAG) | 1.62
ATGCTAACTTGGGTTCTAACCTGTTGCCT (site GTGCTAACTTG) | 0.471
ATGCTATCTTGGGTTCTAACCTGTTGCAG (site ATGCTATCTCT) | 0.678
ATGCTATCTTGGGTTCTAACCTGTTGCAG (site CACGGTCCTTG) | 0.276
ATGCTGTCTTGGGTTCTAACCTGTTGCTA (site ATGCTGTCTTA) | 1.52
ATGCTGTCTTGGGTTCTAACCTGTTGCTA (site GACTACCCTAG) | 0.273
ATGGCACCTTGGGTTCTAACCTGTTGCCT (site AGGGCACCTTG) | 0.035
ATGGCACCTTGGGTTCTAACCTGTTGCCT (site ATGGCACCTAG) | 1.04
ATGGCCTCTTGGGTTCTAACCTGTTGCTA (site ATGGCCTCTTA) | 2.5
ATGGCCTCTTGGGTTCTAACCTGTTGCTA (site GCTTAAACTAG) | 0.0975
ATGGGCCCTTGGGTTCTAACCTGTTGCTG (site ATGGGCCCTAA) | 0.13
ATGGGCCCTTGGGTTCTAACCTGTTGCTG (site ATGGGCCCTCA) | 2.97
ATGGGCCCTTGGGTTCTAACCTGTTGCTG (site ATGGGCCCTGA) | 0.127
ATGGGCCCTTGGGTTCTAACCTGTTGCTG (site ATGGGCCCTTA) | 0.511
ATGGGGTCTTGGGTTCTAACCTGTTGCTT (site AAGGGGTCTAA) | 0.223
ATGGGGTCTTGGGTTCTAACCTGTTGCTT (site ATGGGGTCTAA) | 1.73
ATGGGTCCTTGGGTTCTAACCTGTTGCCG (site ATAGGTCCTCA) | 0.536
ATGGGTCCTTGGGTTCTAACCTGTTGCCG (site ATGGGTCCTCG) | 2.21
ATGGTCACTTGGGTTCTAACCTGTTGCCT (site AAGGTCACTAG) | 0.354
ATGGTCACTTGGGTTCTAACCTGTTGCCT (site ACGGTCACTAG) | 1.18
ATGGTCACTTGGGTTCTAACCTGTTGCCT (site AGGGTCACTAG) | 0.0805
ATGGTCACTTGGGTTCTAACCTGTTGCCT (site ATGGTCACTAG) | 2.54

Sequence | recombinant barcode read abundance (log10)
ATGGTGTCTTGGGTTCTAACCTGTTGCCT (site ATGGTGACTAG) | 0.109
ATGGTGTCTTGGGTTCTAACCTGTTGCCT (site ATGGTGCCTAG) | 0.768
ATGGTGTCTTGGGTTCTAACCTGTTGCCT (site ATGGTGGCTAG) | 0.0539
ATGGTGTCTTGGGTTCTAACCTGTTGCCT (site ATGGTGTCTAG) | 2.75
ATGTACACTTGGGTTCTAACCTGTTGCCT (site ATGGATACTAG) | 0.0684
ATGTACACTTGGGTTCTAACCTGTTGCCT (site ATGTACACTAG) | 1.55
ATGTAGTCTTGGGTTCTAACCTGTTGCCT (site ATGTAGTCTAG) | 1.89
ATGTAGTCTTGGGTTCTAACCTGTTGCCT (site TTGTCGTCTAG) | 0.24
ATGTCCTCTTGGGTTCTAACCTGTTGCCT (site ATGACCTCTAG) | 0.145
ATGTCCTCTTGGGTTCTAACCTGTTGCCT (site ATGCCCTCTAG) | 0.872
ATGTCCTCTTGGGTTCTAACCTGTTGCCT (site ATGGCCTCTAG) | 0.276
ATGTCCTCTTGGGTTCTAACCTGTTGCCT (site ATGTCCTCTAG) | 1.5
ATGTCTGCTTGGGTTCTAACCTGTTGCCT (site ATGTCTGCTAG) | 0.475
ATGTCTGCTTGGGTTCTAACCTGTTGCCT (site GATGGACCTTA) | 0.0105
ATGTGAACTTGGGTTCTAACCTGTTGCTG (site ATGTGAACTCA) | 1.02
ATGTGAACTTGGGTTCTAACCTGTTGCTG (site GCAGCCTCTAC) | 0.0648
ATGTGCTCTTGGGTTCTAACCTGTTGCCT (site AAGTGCTCTAG) | 0.204
ATGTGCTCTTGGGTTCTAACCTGTTGCCT (site ACGTGCTCTAG) | 0.253
ATGTGCTCTTGGGTTCTAACCTGTTGCCT (site AGGTGCTCTAG) | 0.22
ATGTGCTCTTGGGTTCTAACCTGTTGCCT (site ATGTGCTCTAG) | 2.07
ATGTTAGCTTGGGTTCTAACCTGTTGCCT (site ATGTAGGCTAG) | 0.208
ATGTTAGCTTGGGTTCTAACCTGTTGCCT (site ATGTTAGCTAG) | 1.65

Sequence | recombinant barcode read abundance (log10)
ATTCGAGCTTGGGTTCTAACCTGTTGCAT (site ATTCGAGCTAT) | 1.18
ATTCGAGCTTGGGTTCTAACCTGTTGCAT (site CGGGCGTCTTA) | 0.203
ATTCGGCCTTGGGTTCTAACCTGTTGCCT (site AGTCGGCCTAG) | 0.038
ATTCGGCCTTGGGTTCTAACCTGTTGCCT (site ATTCGGCCTAG) | 0.0683
ATTGCTCCTTGGGTTCTAACCTGTTGCCT (site ATTGCTCCTAG) | 0.416
ATTGCTCCTTGGGTTCTAACCTGTTGCCT (site ATTGGTCCTAT) | 0.126
ATTGCTCCTTGGGTTCTAACCTGTTGCTT (site ATTGCTCCTAA) | 0.106
ATTGCTCCTTGGGTTCTAACCTGTTGCTT (site GGTGCTCCTAA) | 0.722
ATTGGTCCTTGGGTTCTAACCTGTTGCCT (site ATAGGTCCTAG) | 0.994
ATTGGTCCTTGGGTTCTAACCTGTTGCCT (site ATCGGTCCTAG) | 0.27
ATTGGTCCTTGGGTTCTAACCTGTTGCCT (site ATGGGTCCTAG) | 0.187
ATTGGTCCTTGGGTTCTAACCTGTTGCCT (site ATTGGTCCTAG) | 1.66
ATTGGTTCTTGGGTTCTAACCTGTTGCCT (site ATTGGATCTAG) | 0.114
ATTGGTTCTTGGGTTCTAACCTGTTGCCT (site ATTGGCTCTAG) | 0.104
ATTGGTTCTTGGGTTCTAACCTGTTGCCT (site ATTGGGTCTAG) | 0.0515
ATTGGTTCTTGGGTTCTAACCTGTTGCCT (site ATTGGTTCTAG) | 1.22
ATTTGAACTTGGGTTCTAACCTGTTGCCT (site ATTTGAACTAG) | 0.086
ATTTGAACTTGGGTTCTAACCTGTTGCCT (site ATTTGCACTAG) | 0.0882
ATTTGAACTTGGGTTCTAACCTGTTGCCT (site ATTTGGACTAG) | 0.148
ATTTGAACTTGGGTTCTAACCTGTTGCCT (site ATTTGTACTAG) | 0.101
